Laboratory results taken from BigSolDB 2.1.

N[C@@H](Cc1c[nH]c2ccccc12)C(=O)O
solubility (mole fraction)
Details | in acetone | in acetonitrile | in ethanol | in ethyl acetate | in isopropanol | in methanol | in n-butanol | in water
278.15 K | 0.0001 | 1e-05 | 0.00012 | 4e-05 | 0.00011 | 0.00062 | 0.0001 | 0.00098
283.15 K | 0.00011 | 2e-05 | 0.00013 | 5e-05 | 0.00012 | 0.00066 | 0.00011 | 0.00105
288.15 K | 0.00013 | 2e-05 | 0.00014 | 7e-05 | 0.00014 | 0.00072 | 0.00012 | 0.00113
293.15 K | 0.00015 | 3e-05 | 0.00017 | 9e-05 | 0.00015 | 0.0008 | 0.00014 | 0.00124
298.15 K | 0.00018 | 4e-05 | 0.0002 | 0.00011 | 0.00018 | 0.0009 | 0.00017 | 0.00137
303.15 K | 0.00022 | 5e-05 | 0.00024 | 0.00014 | 0.00021 | 0.00102 | 0.0002 | 0.00154
308.15 K | 0.00026 | 7e-05 | 0.00028 | 0.00018 | 0.00024 | 0.00115 | 0.00024 | 0.00174
313.15 K | 0.00031 | 8e-05 | 0.00033 | 0.00023 | 0.00028 | 0.00131 | 0.00028 | 0.00199
318.15 K | 0.00037 | 0.0001 | 0.00038 | 0.00028 | 0.00033 | 0.00149 | 0.00034 | 0.00229
323.15 K | 0.00045 | 0.00012 | 0.00044 | 0.00034 | 0.00037 | 0.00166 | 0.0004 | 0.00261
328.15 K | 0.00056 | 0.00014 | 0.0005 | 0.00041 | 0.00043 | 0.00189 | 0.00049 | 0.00294
333.15 K | 0.00069 | 0.00017 | 0.00058 | 0.0005 | 0.0005 | 0.00217 | 0.00059 | 0.00328
